Like-named read-outs stand apart in the source and are kept apart here.
Columns and labels:
[1] = target: GSK3α (GST-full length GSK3α) (Homo sapiens (Human), UniProt P49840); assay: GSK3α TR-FRET kinase assay; type: biochemical; conditions: IC50
How it was run: (§1)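 IC50s came from the normalized 665/615 TR-FRET ratio after Tb-anti-pSer641 antibody and streptavidin-d2 detection of phosphorylated biotin-glycogen synthase peptide (200 nM). ATP was 4 μM for GSK3α, 2 μM for GSK3b, or 1 mM; 1 nM enzyme, 100 min, ambient, pH 7.5, after 30-min compound preincubation.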

[2] = target: GSK3b (GST-full length GSK3b) (Homo sapiens (Human), UniProt P49841); assay: GSK3b TR-FRET kinase assay; type: biochemical; conditions: IC50
How it was run: as §1

[3] = 1 nM GSK3α, 4 μM ATP, 30 minute preincubation, read-out: GSK3-A TR-FRET BIOCHEMICAL (TR-FRET)
[4] = read-out: GSK3-A (TR-FRET 1 mM ATP), GMean, 1 mM ATP, geometric mean
[5] = 1 nM GSK3b, 2 μM ATP, 30 minute preincubation, read-out: GSK3-B TR-FRET BIOCHEMICAL (TR-FRET)
[6] = read-out: GSK3-B (TR-FRET 1 mM ATP), GMean, 1 mM ATP, geometric mean

Chain of GSK3α (GST-full length GSK3α) (P49840 whole entry): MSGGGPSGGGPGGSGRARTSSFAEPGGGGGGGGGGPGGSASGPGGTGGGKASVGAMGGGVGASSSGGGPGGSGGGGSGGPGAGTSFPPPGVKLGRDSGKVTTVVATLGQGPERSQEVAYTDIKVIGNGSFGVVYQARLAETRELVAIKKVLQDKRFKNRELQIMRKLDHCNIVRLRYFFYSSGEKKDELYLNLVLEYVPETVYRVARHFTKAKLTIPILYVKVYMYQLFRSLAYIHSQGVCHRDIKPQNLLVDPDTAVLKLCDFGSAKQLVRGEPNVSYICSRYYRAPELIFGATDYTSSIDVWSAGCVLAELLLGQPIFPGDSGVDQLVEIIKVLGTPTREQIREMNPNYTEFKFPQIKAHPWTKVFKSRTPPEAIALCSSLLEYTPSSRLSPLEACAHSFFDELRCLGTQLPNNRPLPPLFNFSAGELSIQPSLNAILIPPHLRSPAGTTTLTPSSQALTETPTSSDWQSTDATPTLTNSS
Chain of GSK3b (GST-full length GSK3b) (P49841 whole entry): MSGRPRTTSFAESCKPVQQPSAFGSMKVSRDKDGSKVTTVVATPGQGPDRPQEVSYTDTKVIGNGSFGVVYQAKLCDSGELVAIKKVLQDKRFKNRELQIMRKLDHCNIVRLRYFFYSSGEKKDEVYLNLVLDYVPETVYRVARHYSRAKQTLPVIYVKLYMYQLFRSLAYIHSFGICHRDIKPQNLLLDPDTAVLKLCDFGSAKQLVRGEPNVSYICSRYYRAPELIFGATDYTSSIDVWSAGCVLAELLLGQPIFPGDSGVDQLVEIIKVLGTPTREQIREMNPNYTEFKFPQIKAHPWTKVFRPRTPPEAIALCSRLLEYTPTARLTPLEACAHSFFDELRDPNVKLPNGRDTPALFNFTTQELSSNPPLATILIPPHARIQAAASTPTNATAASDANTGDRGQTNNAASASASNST

SMILES	IC50 [1, 3] [nM]	IC50 [1, 4] [nM]	IC50 [2, 5] [nM]	IC50 [2, 6] [nM]
CC1CCC(CC(=O)N2CC3(C2)CC2(CO3)C3=C(CC(C)(C)CC3=O)Nc3n[nH]cc32)C1 (stereo not shown) [Compound 947269]	≤ 100	100 to 1000	≤ 100	100 to 1000
CCC(C)C(=O)N1CC2(C1)CC1(CO2)C2=C(CC(C)(C)CC2=O)Nc2n[nH]cc21 (stereo not shown) [Compound 947270]	≤ 100	–	100 to 1000	–
CC1(C)CC(=O)C2=C(C1)Nc1n[nH]cc1C21COC2(CN(C(=O)C3(C)CC(F)C3)C2)C1 (stereo not shown) [Compound 947271]	≤ 100	–	100 to 1000	–
CC1(C)CC(=O)C2=C(C1)Nc1n[nH]cc1C21COC2(CN(C(=O)C3CC3(F)F)C2)C1 (stereo not shown) [Compound 947272]	≤ 100	–	≤ 100	–
CC(C)C1CC(C(=O)N2CC3(C2)CC2(CO3)C3=C(CC(C)(C)CC3=O)Nc3n[nH]cc32)C1 (stereo not shown) [Compound 947273]	≤ 100	–	≤ 100	–
CC1CCCC1C(=O)N1CC2(C1)CC1(CO2)C2=C(CC(C)(C)CC2=O)Nc2n[nH]cc21 (stereo not shown) [Compound 947274]	≤ 100	–	100 to 1000	–
CC1(C)CC(=O)C2=C(C1)Nc1n[nH]cc1C21COC2(CN(C(=O)C(C)(F)F)C2)C1 (stereo not shown) [Compound 947275]	≤ 100	100 to 1000	≤ 100	100 to 1000
CC1(C)CC(=O)C2=C(C1)Nc1n[nH]cc1C21COC2(CN(C(=O)C(C)(C)F)C2)C1 (stereo not shown) [Compound 947276]	≤ 100	–	≤ 100	–
CC1(C)CC(=O)C2=C(C1)Nc1n[nH]cc1C21COC2(CN(C(=O)C3(F)CCCC3)C2)C1 (stereo not shown) [Compound 947277]	≤ 100	–	≤ 100	–
CC1(C)CC(=O)C2=C(C1)Nc1n[nH]cc1C21COC2(CN(C(=O)CC3CC(F)(F)C3)C2)C1 (stereo not shown) [Compound 947278]	≤ 100	–	≤ 100	–
CC1(C)CC(=O)C2=C(C1)Nc1n[nH]cc1C21COC2(CN(C(=O)C3(F)CCC3)C2)C1 (stereo not shown) [Compound 947279]	≤ 100	–	≤ 100	–
CC1(C)CC(=O)C2=C(C1)Nc1n[nH]cc1C21COC2(CN(C(=O)C(F)(F)F)C2)C1 (stereo not shown) [Compound 947280]	≤ 100	–	≤ 100	–
Cc1ccc(CC(=O)N2CC3(C2)CC2(CO3)C3=C(CC(C)(C)CC3=O)Nc3n[nH]cc32)cc1 (stereo not shown) [Compound 947281]	≤ 100	100 to 1000	≤ 100	100 to 1000
CC1(C)CC(=O)C2=C(C1)Nc1n[nH]cc1C21COC2(CN(C(=O)C3CC(C)(C)C3)C2)C1 (stereo not shown) [Compound 947282]	≤ 100	–	100 to 1000	–
CC1(C)CC(=O)C2=C(C1)Nc1n[nH]cc1C21COC2(CN(C(=O)c3cccc(F)c3)C2)C1 (stereo not shown) [Compound 947283]	≤ 100	–	≤ 100	–
Cc1cccc(C(=O)N2CC3(C2)CC2(CO3)C3=C(CC(C)(C)CC3=O)Nc3n[nH]cc32)c1C (stereo not shown) [Compound 947284]	≤ 100	–	100 to 1000	–
Cc1ccc(C)c(C(=O)N2CC3(C2)CC2(CO3)C3=C(CC(C)(C)CC3=O)Nc3n[nH]cc32)c1 (stereo not shown) [Compound 947285]	≤ 100	–	100 to 1000	–
Cc1ccc(C(=O)N2CC3(C2)CC2(CO3)C3=C(CC(C)(C)CC3=O)Nc3n[nH]cc32)cc1C (stereo not shown) [Compound 947286]	≤ 100	–	≤ 100	–
Cc1ccccc1C(=O)N1CC2(C1)CC1(CO2)C2=C(CC(C)(C)CC2=O)Nc2n[nH]cc21 (stereo not shown) [Compound 947287]	≤ 100	–	100 to 1000	–
CC1(C)CC(=O)C2=C(C1)Nc1n[nH]cc1C21COC2(CN(C(=O)C3CCC3)C2)C1 (stereo not shown) [Compound 947288]	≤ 100	100 to 1000	≤ 100	100 to 1000
CC1(C)CC(=O)C2=C(C1)Nc1n[nH]cc1C21COC2(CN(C(=O)c3ccccc3F)C2)C1 (stereo not shown) [Compound 947289]	≤ 100	–	≤ 100	–
Cc1ccc(C(=O)N2CC3(C2)CC2(CO3)C3=C(CC(C)(C)CC3=O)Nc3n[nH]cc32)cc1 (stereo not shown) [Compound 947290]	≤ 100	–	≤ 100	–
CC1(C)CC(=O)C2=C(C1)Nc1n[nH]cc1C21COC2(CN(C(=O)C3CCCCC3)C2)C1 (stereo not shown) [Compound 947291]	≤ 100	–	100 to 1000	–
CC1(C)CC(=O)C2=C(C1)Nc1n[nH]cc1C21COC2(CN(C(=O)c3ccc(F)cc3)C2)C1 (stereo not shown) [Compound 947292]	≤ 100	–	≤ 100	–
CC1(C)CC(=O)C2=C(C1)Nc1n[nH]cc1C21COC2(CN(C(=O)CC3CCCC3)C2)C1 (stereo not shown) [Compound 947293]	≤ 100	–	≤ 100	–
